# Reference: BindingDB's records for doi:10.1016/j.bmcl.2007.06.017 (Tanabe Research Laboratories Usa, 2007)
# Target: T1, Oxysterols receptor LXR-beta (Homo sapiens, UniProt P55055)
# T1 sequence (P55055 whole entry): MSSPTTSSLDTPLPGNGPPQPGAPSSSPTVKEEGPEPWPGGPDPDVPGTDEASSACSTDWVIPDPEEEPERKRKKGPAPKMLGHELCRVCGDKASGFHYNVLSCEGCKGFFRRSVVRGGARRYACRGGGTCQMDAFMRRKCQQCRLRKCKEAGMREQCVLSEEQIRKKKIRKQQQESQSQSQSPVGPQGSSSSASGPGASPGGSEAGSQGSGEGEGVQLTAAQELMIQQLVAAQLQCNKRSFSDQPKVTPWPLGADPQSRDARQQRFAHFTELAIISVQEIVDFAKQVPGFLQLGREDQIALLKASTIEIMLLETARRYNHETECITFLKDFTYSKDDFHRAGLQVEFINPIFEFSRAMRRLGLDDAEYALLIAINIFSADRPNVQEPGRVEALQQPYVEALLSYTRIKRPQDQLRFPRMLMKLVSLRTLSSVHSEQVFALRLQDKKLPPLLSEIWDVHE
# Test: HTRF Cofactor Peptide Recruitment Assay
# Settings: pH 7.5; 22 °C
# Procedure: Polyhistidine-tagged human LXR ligand-binding domain was mixed with the test compound, biotin-SRC1 peptide, streptavidin-allophycocyanin, and europium labeled anti-polyhistidine antibody in reaction buffer, and the mixture was incubated in a 384-well assay plate format.
structure (smiles),measurement,value
CC(C)(C)OC(=O)n1c(-c2ccc(CCNS(=O)(=O)c3ccc(-c4ccccn4)s3)cc2)cc2ccccc21 [tert-butyl 2-[4-(2-{[5-(pyridin-2-yl)thiophene-2-]sulfonamido}ethyl)phenyl]-1H-indole-1-carboxylate],EC50,230 nM
